# Assay results taken from patent US7935686B2, “Acyloxyalkyl carbamate prodrugs, methods of synthesis, and use” (XenoPort, Inc., priority 2004, dated 2011).
# Legend:
# [1] = Prodrug in vitro metabolism, human liver S9; format: in vitro ADME; conditions: Human Liver S9 (0.5 mg/mL), 2.0 μM substrate, NADPH, 37° C.
# Method: (§1) The stabilities of prodrugs were evaluated in one or more in vitro systems using a variety of preparations following methods known in the art. Tissues and/or preparations were obtained from commercial sources (e.g., Pel-Freez Biologicals, Rogers, Ark., or GenTest Corporation, Woburn, Mass.). Experimental conditions used for the in vitro studies are described in Table 1. Each preparation was incubated with test compound at 37° C. for one hour. Aliquots (50 μL) were removed at 0, 30, and 60 min and quenched with 0.1% trifluoroacetic acid in acetonitrile. Samples were then centrifuged and analyzed by LC/MS/MS. Stability of prodrugs towards specific enzymes (e.g., peptidases, etc.) were also assessed in vitro by incubation with the purified enzyme: […]
# [2] = test system: pancreatin; test: Pancreatin stability; format: in vitro ADME, porcine; conditions: 1% (w/v) pancreatin, 5 μM prodrug, pH 7.5, 37° C.
# Method: The stabilities of prodrugs were evaluated in one or more in vitro systems using a variety of preparations following methods known in the art. Tissues and/or preparations were obtained from commercial sources (e.g., Pel-Freez Biologicals, Rogers, Ark., or GenTest Corporation, Woburn, Mass.). Experimental conditions used for the in vitro studies are described in Table 1. Each preparation was incubated with test compound at 37° C. for one hour. Aliquots (50 μL) were removed at 0, 30, and 60 min and quenched with 0.1% trifluoroacetic acid in acetonitrile. Samples were then centrifuged and analyzed by LC/MS/MS. Stability of prodrugs towards specific enzymes (e.g., peptidases, etc.) were also assessed in vitro by incubation with the purified enzyme:
# Pancreatin Stability: Stability studies were conducted by incubating prodrug (5 μM) with 1% (w/v) pancreatin (Sigma, P-1625, from porcine pancreas) in 0.025 M Tris buffer containing 0.5 M NaCl (pH 7.5) at 37° C. for 60 min. The reaction was stopped by addition of 2 volumes of methanol. After centrifugation at 14,000 rpm for 10 min, the supernatant was removed and analyzed by LC/MS/MS.
# [3] = Caco-2 homogenate S9 stability; format: in vitro ADME; conditions: Caco-2 S9 (0.5 mg protein per mL), 5 μM prodrug, 37° C.
# Method: Caco-2 Homogenate S9 Stability: Caco-2 cells were grown for 21 days prior to harvesting. Culture medium was removed and cell monolayers were rinsed and scraped off into ice-cold 10 mM sodium phosphate/0.15 M potassium chloride, pH 7.4. Cells were lysed by sonication at 4° C. using a probe sonicator. Lysed cells were then transferred into 1.5 mL centrifuge vials and centrifuged at 9000 g for 20 min at 4° C. The resulting supernatant (Caco-2 cell homogenate S9 fraction) was aliquoted into 0.5 mL vials and stored at −80° C. until used.
# For stability studies, prodrug (5 μM) was incubated in Caco-2 homogenate S9 fraction (0.5 mg protein per mL) for 60 min at 37° C. Concentrations of intact prodrug and released parent drug were determined at zero time and 60 minutes using LC/MS/MS.
# [4] = Prodrug in vitro metabolism, rat plasma; format: in vitro ADME; conditions: 2.0 μM substrate, no cofactors, 37° C.
# Method: as §1
# [5] = Prodrug in vitro metabolism, rat liver S9; format: in vitro ADME; conditions: Rat Liver S9 (0.5 mg/mL), 2.0 μM substrate, NADPH, 37° C.
# Method: as §1
# [6] = Prodrug in vitro metabolism, human plasma; format: in vitro ADME; conditions: 2.0 μM substrate, no cofactors, 37° C.
# Method: as §1
# [7] = animal models (Merino et al.); cited from earlier work
Percent of Prodrug Remaining after 60 min. [1] [%],Percent of Prodrug Remaining after 60 min. [2] [%],Percent of Prodrug Remaining after 60 min. [3] [%],Percent of Prodrug Remaining after 60 min. [4] [%],Percent of Prodrug Remaining after 60 min. [5] [%],Percent of Prodrug Remaining after 60 min. [6] [%],SMILES,absorption following administration into the colon [7]
43,24,82,98,51,97,"CC(OC(=O)NCCCP(C)(=O)O)OC(=O)C1CCCCC1 (stereo not shown) [Compound 114, 3-{[1-Cyclohexanoyloxyethoxy]carbonylamino}propyl Methylphosphinic Acid]",–
57,20,20,7,67,30,"CC(C)C(=O)OCOC(=O)NCCCP(C)(=O)O [Compound 115, 3-{[Isobutanoyloxymethoxy]carbonylamino}propyl Methylphosphinic Acid]",–
64,62,91,100,85,78,"CP(=O)(O)CCCNC(=O)OCOC(=O)c1ccccc1 [Compound 195, 3-{[Benzoyloxymethoxy]carbonylamino}propyl Methylphosphinic Acid]",–

# Second part, the molecule before the results:
SMILES,Percent of Prodrug Remaining after 60 min. [1] [%],Percent of Prodrug Remaining after 60 min. [2] [%],Percent of Prodrug Remaining after 60 min. [3] [%],Percent of Prodrug Remaining after 60 min. [4] [%],Percent of Prodrug Remaining after 60 min. [5] [%],Percent of Prodrug Remaining after 60 min. [6] [%],absorption following administration into the colon [7]
"CC(OC(=O)NCCCP(C)(=O)O)OC(=O)C(C)C (stereo not shown) [Compound 111, 3-{[1-Isobutanoyloxyethoxy]carbonylamino}propyl Methylphosphinic Acid]",81,79,82,40,82,84,–
"CC(C)C(=O)OC(OC(=O)NCCCP(C)(=O)O)C(C)C (stereo not shown) [Compound 194, 3-{[1-Isobutanoyloxyisobutoxy]carbonylamino}propyl Methylphosphinic Acid]",66,91,71,38,63,77,–
"NCC(CC(=O)O)c1ccc(Cl)cc1 (racemic) [Baclofen, (±)-4-Amino-3-(4-chlorophenyl)butanoic acid]",–,–,–,–,–,–,poorly absorbed
